According to patent US7820623B2 (priority 2006, dated 2010):
pIC50: −log10 of the molar value. Bridge positions count the residues as written; N and C are the ends. Square brackets hold non-standard residues; d marks the D form. Peptide text beside a SMILES is read from it. 1Nal = N[C@@H](Cc1cccc2ccccc12)C(=O)O

Key:
[1] = test system: thapsigargin-induced IL-2 production in human whole blood; conditions: read-out: Analogue Activity (IC50) WB/IL-2
[2] = test system: thapsigargin-induced IFN-g production in human whole blood; assay type: cell-based; conditions: read-out: Analogue Activity (IC50) WB/IFNg

Row | Compound | pIC50 [1] | pIC50 [2]
1 | CC[C@H](C)[C@@H]1NC(=O)[C@H](C)NC(=O)[C@@H](NC(=O)[C@H](CCCCN)NC(=O)[C@@H](NC(=O)[C@H](CC(N)=O)NC(=O)[C@@H](NC(=O)[C@@H](NC(=O)[C@@H](NC(=O)CN)C(C)C)[C@@H](C)CC)[C@@H](C)CC)C(C)C)CSSC[C@@H]2NC(=O)[C@H](CCCCN)NC(=O)CNC(=O)[C@H](Cc3ccccc3)NC(=O)[C@H](CCCNC(=N)N)NC(=O)[C@H](CCSC)NC(=O)CNC(=O)[C@H](C)NC(=O)[C@H](CCCCN)NC(=O)[C@H](CCCCN)NC(=O)[C@@H]3CSSC[C@@H](C(=O)N[C@H](C(=O)N4CCC[C@H]4C(=O)N[C@@H](CCCCN)C(=O)O)[C@@H](C)O)NC(=O)[C@H](Cc4c[nH]cn4)NC(=O)[C@H](CSSC[C@H](NC(=O)[C@H](CCC(N)=O)NC(=O)[C@H](CCCNC(=N)N)NC(=O)[C@H](CO)NC1=O)C(=O)N[C@@H](CC(C)C)C(=O)N[C@@H](CCC(=O)O)C(=O)N1CCC[C@H]1C(=O)N3)NC(=O)[C@H](CCCCN)NC(=O)CNC(=O)[C@H](CC(N)=O)NC(=O)[C@H](CCSC)NC2=O [K9A] (H-GVIINVKCAISRQCLEPCKKAGMRFGKCMNGKCHCTPK-OH; disulfide 8-28, 14-33, 18-35) | 10.10 | 10.15
2 | CC[C@H](C)[C@@H]1NC(=O)[C@H](CCC(=O)O)NC(=O)[C@@H](NC(=O)[C@H](CCCCN)NC(=O)[C@@H](NC(=O)[C@H](CC(N)=O)NC(=O)[C@@H](NC(=O)[C@@H](NC(=O)[C@@H](NC(=O)CN)C(C)C)[C@@H](C)CC)[C@@H](C)CC)C(C)C)CSSC[C@@H]2NC(=O)[C@H](CCCCN)NC(=O)CNC(=O)[C@H](Cc3ccccc3)NC(=O)[C@H](CCCNC(=N)N)NC(=O)[C@H](CCSC)NC(=O)CNC(=O)[C@H](C)NC(=O)[C@H](CCCCN)NC(=O)[C@H](CCCCN)NC(=O)[C@@H]3CSSC[C@@H](C(=O)N[C@H](C(=O)N4CCC[C@H]4C(=O)N[C@@H](CCCCN)C(=O)O)[C@@H](C)O)NC(=O)[C@H](Cc4c[nH]cn4)NC(=O)[C@H](CSSC[C@H](NC(=O)[C@H](CCC(N)=O)NC(=O)[C@H](CCCNC(=N)N)NC(=O)[C@H](CO)NC1=O)C(=O)N[C@@H](CC(C)C)C(=O)N[C@@H](CCC(=O)O)C(=O)N1CCC[C@H]1C(=O)N3)NC(=O)[C@H](CCCCN)NC(=O)CNC(=O)[C@H](CC(N)=O)NC(=O)[C@H](CCSC)NC2=O [K9E] (H-GVIINVKCEISRQCLEPCKKAGMRFGKCMNGKCHCTPK-OH; disulfide 8-28, 14-33, 18-35) | 9.75 | 9.77
3 | CC[C@H](C)[C@@H]1NC(=O)[C@H](Cc2cccc3ccccc23)NC(=O)[C@@H](NC(=O)[C@H](CCCCN)NC(=O)[C@@H](NC(=O)[C@H](CC(N)=O)NC(=O)[C@@H](NC(=O)[C@@H](NC(=O)[C@@H](NC(=O)CN)C(C)C)[C@@H](C)CC)[C@@H](C)CC)C(C)C)CSSC[C@@H]2NC(=O)[C@H](CCCCN)NC(=O)CNC(=O)[C@H](Cc3ccccc3)NC(=O)[C@H](CCCNC(=N)N)NC(=O)[C@H](CCSC)NC(=O)CNC(=O)[C@H](C)NC(=O)[C@H](CCCCN)NC(=O)[C@H](CCCCN)NC(=O)[C@@H]3CSSC[C@@H](C(=O)N[C@H](C(=O)N4CCC[C@H]4C(=O)N[C@@H](CCCCN)C(=O)O)[C@@H](C)O)NC(=O)[C@H](Cc4c[nH]cn4)NC(=O)[C@H](CSSC[C@H](NC(=O)[C@H](CCC(N)=O)NC(=O)[C@H](CCCNC(=N)N)NC(=O)[C@H](CO)NC1=O)C(=O)N[C@@H](CC(C)C)C(=O)N[C@@H](CCC(=O)O)C(=O)N1CCC[C@H]1C(=O)N3)NC(=O)[C@H](CCCCN)NC(=O)CNC(=O)[C@H](CC(N)=O)NC(=O)[C@H](CCSC)NC2=O [K9Nal] (H-GVIINVKC[1Nal]ISRQCLEPCKKAGMRFGKCMNGKCHCTPK-OH; disulfide 8-28, 14-33, 18-35) | 8.97 | 8.91
4 | CC[C@H](C)[C@@H]1NC(=O)[C@H](CCCNC(=N)N)NC(=O)[C@@H](NC(=O)[C@H](CCCCN)NC(=O)[C@@H](NC(=O)[C@H](CC(N)=O)NC(=O)[C@@H](NC(=O)[C@@H](NC(=O)[C@@H](NC(=O)CN)C(C)C)[C@@H](C)CC)[C@@H](C)CC)C(C)C)CSSC[C@@H]2NC(=O)[C@H](CCCCN)NC(=O)CNC(=O)[C@H](Cc3ccccc3)NC(=O)[C@H](CCCNC(=N)N)NC(=O)[C@H](CCSC)NC(=O)CNC(=O)[C@H](C)NC(=O)[C@H](CCCCN)NC(=O)[C@H](CCCCN)NC(=O)[C@@H]3CSSC[C@@H](C(=O)N[C@H](C(=O)N4CCC[C@H]4C(=O)N[C@@H](CCCCN)C(=O)O)[C@@H](C)O)NC(=O)[C@H](Cc4c[nH]cn4)NC(=O)[C@H](CSSC[C@H](NC(=O)[C@H](CCC(N)=O)NC(=O)[C@H](CCCNC(=N)N)NC(=O)[C@H](CO)NC1=O)C(=O)N[C@@H](CC(C)C)C(=O)N[C@@H](CCC(=O)O)C(=O)N1CCC[C@H]1C(=O)N3)NC(=O)[C@H](CCCCN)NC(=O)CNC(=O)[C@H](CC(N)=O)NC(=O)[C@H](CCSC)NC2=O [K9R] (H-GVIINVKCRISRQCLEPCKKAGMRFGKCMNGKCHCTPK-OH; disulfide 8-28, 14-33, 18-35) | 9.97 | 10.11
5 | CC[C@H](C)[C@@H]1NC(=O)[C@H](CCCCN)NC(=O)[C@@H](NC(=O)[C@H](CCCCN)NC(=O)[C@@H](NC(=O)[C@H](CC(N)=O)NC(=O)[C@@H](NC(=O)[C@@H](NC(=O)[C@@H](NC(=O)CN)C(C)C)[C@@H](C)CC)[C@@H](C)CC)C(C)C)CSSC[C@@H]2NC(=O)[C@H](CCCCN)NC(=O)CNC(=O)[C@H](Cc3ccccc3)NC(=O)[C@H](CCCNC(=N)N)NC(=O)[C@H](CCSC)NC(=O)CNC(=O)[C@H](C)NC(=O)[C@H](CCCCN)NC(=O)[C@H](C)NC(=O)[C@@H]3CSSC[C@@H](C(=O)N[C@H](C(=O)N4CCC[C@H]4C(=O)N[C@@H](CCCCN)C(=O)O)[C@@H](C)O)NC(=O)[C@H](Cc4c[nH]cn4)NC(=O)[C@H](CSSC[C@H](NC(=O)[C@H](CCC(N)=O)NC(=O)[C@H](CCCNC(=N)N)NC(=O)[C@H](CO)NC1=O)C(=O)N[C@@H](CC(C)C)C(=O)N[C@@H](CCC(=O)O)C(=O)N1CCC[C@H]1C(=O)N3)NC(=O)[C@H](CCCCN)NC(=O)CNC(=O)[C@H](CC(N)=O)NC(=O)[C@H](CCSC)NC2=O [K19A] (H-GVIINVKCKISRQCLEPCAKAGMRFGKCMNGKCHCTPK-OH; disulfide 8-28, 14-33, 18-35) | 9.79 | 9.79
6 | CC[C@H](C)[C@@H]1NC(=O)[C@H](CCCCN)NC(=O)[C@@H](NC(=O)[C@H](CCCCN)NC(=O)[C@@H](NC(=O)[C@H](CC(N)=O)NC(=O)[C@@H](NC(=O)[C@@H](NC(=O)[C@@H](NC(=O)CN)C(C)C)[C@@H](C)CC)[C@@H](C)CC)C(C)C)CSSC[C@@H]2NC(=O)[C@H](CCCCN)NC(=O)CNC(=O)[C@H](Cc3ccccc3)NC(=O)[C@H](CCCNC(=N)N)NC(=O)[C@H](CCSC)NC(=O)CNC(=O)[C@H](C)NC(=O)[C@H](CCCCN)NC(=O)[C@H](Cc3cccc4ccccc34)NC(=O)[C@@H]3CSSC[C@@H](C(=O)N[C@H](C(=O)N4CCC[C@H]4C(=O)N[C@@H](CCCCN)C(=O)O)[C@@H](C)O)NC(=O)[C@H](Cc4c[nH]cn4)NC(=O)[C@H](CSSC[C@H](NC(=O)[C@H](CCC(N)=O)NC(=O)[C@H](CCCNC(=N)N)NC(=O)[C@H](CO)NC1=O)C(=O)N[C@@H](CC(C)C)C(=O)N[C@@H](CCC(=O)O)C(=O)N1CCC[C@H]1C(=O)N3)NC(=O)[C@H](CCCCN)NC(=O)CNC(=O)[C@H](CC(N)=O)NC(=O)[C@H](CCSC)NC2=O [K19Nal] (H-GVIINVKCKISRQCLEPC[1Nal]KAGMRFGKCMNGKCHCTPK-OH; disulfide 8-28, 14-33, 18-35) | 10.24 | 10.00
7 | CC[C@H](C)[C@@H]1NC(=O)[C@H](CCCCN)NC(=O)[C@@H](NC(=O)[C@H](CCCCN)NC(=O)[C@@H](NC(=O)[C@H](CC(N)=O)NC(=O)[C@@H](NC(=O)[C@@H](NC(=O)[C@@H](NC(=O)CN)C(C)C)[C@@H](C)CC)[C@@H](C)CC)C(C)C)CSSC[C@@H]2NC(=O)[C@H](CCCCN)NC(=O)CNC(=O)[C@H](Cc3ccccc3)NC(=O)[C@H](CCCNC(=N)N)NC(=O)[C@H](CCSC)NC(=O)CNC(=O)[C@H](C)NC(=O)[C@H](CCCCN)NC(=O)[C@H](CCCNC(=N)N)NC(=O)[C@@H]3CSSC[C@@H](C(=O)N[C@H](C(=O)N4CCC[C@H]4C(=O)N[C@@H](CCCCN)C(=O)O)[C@@H](C)O)NC(=O)[C@H](Cc4c[nH]cn4)NC(=O)[C@H](CSSC[C@H](NC(=O)[C@H](CCC(N)=O)NC(=O)[C@H](CCCNC(=N)N)NC(=O)[C@H](CO)NC1=O)C(=O)N[C@@H](CC(C)C)C(=O)N[C@@H](CCC(=O)O)C(=O)N1CCC[C@H]1C(=O)N3)NC(=O)[C@H](CCCCN)NC(=O)CNC(=O)[C@H](CC(N)=O)NC(=O)[C@H](CCSC)NC2=O [K19R] (H-GVIINVKCKISRQCLEPCRKAGMRFGKCMNGKCHCTPK-OH; disulfide 8-28, 14-33, 18-35) | 10.36 | 10.21
8 | CC[C@H](C)[C@@H]1NC(=O)[C@H](CCCCN)NC(=O)[C@@H](NC(=O)[C@H](CCCCN)NC(=O)[C@@H](NC(=O)[C@H](CC(N)=O)NC(=O)[C@@H](NC(=O)[C@@H](NC(=O)[C@@H](NC(=O)CN)C(C)C)[C@@H](C)CC)[C@@H](C)CC)C(C)C)CSSC[C@@H]2NC(=O)[C@H](CCCCN)NC(=O)CNC(=O)[C@H](Cc3ccccc3)NC(=O)[C@H](CCCNC(=N)N)NC(=O)[C@H](CCSC)NC(=O)CNC(=O)[C@H](C)NC(=O)[C@H](C)NC(=O)[C@H](CCCCN)NC(=O)[C@@H]3CSSC[C@@H](C(=O)N[C@H](C(=O)N4CCC[C@H]4C(=O)N[C@@H](CCCCN)C(=O)O)[C@@H](C)O)NC(=O)[C@H](Cc4c[nH]cn4)NC(=O)[C@H](CSSC[C@H](NC(=O)[C@H](CCC(N)=O)NC(=O)[C@H](CCCNC(=N)N)NC(=O)[C@H](CO)NC1=O)C(=O)N[C@@H](CC(C)C)C(=O)N[C@@H](CCC(=O)O)C(=O)N1CCC[C@H]1C(=O)N3)NC(=O)[C@H](CCCCN)NC(=O)CNC(=O)[C@H](CC(N)=O)NC(=O)[C@H](CCSC)NC2=O [K20A] (H-GVIINVKCKISRQCLEPCKAAGMRFGKCMNGKCHCTPK-OH; disulfide 8-28, 14-33, 18-35) | 9.42 | 9.42
